{"source": "patent US20250042856A1", "about": "“CRYSTALLINE FORM OF (R)-2-(TERT-BUTYLAMINO)-1-(5-FLUOROPYRIDIN-3-YL)-ETHAN-1-OL HEMI-TARTRATE SALT FOR THE TREATMENT OF HYPERGLYCEMIA AND DIABETES 2” (ATROGI AB, priority 2021, published 2025)", "experiment": "TGMS mass loss due to water after exposure to stress conditions", "assay_type": "physicochemical", "settings": "between 6° and 160° C., after 2 days at 40° C. and 75% RH"}
{"smiles": "CC(C)(C)NC[C@H](O)c1cncc(F)c1.O=C(O)C(=O)O", "note": "[Comparative Salt Example 9]", "values": [{"measurement": "mass loss (TGMS)", "value": "no significant mass loss"}]}
